# Test results reported in patent publication US20090238808A1, “Process for the identification of novel enzyme interacting compounds” (priority 2005, published 2009).
# Biological target: CDKL5 (Mus musculus, UniProt Q3UTQ8)
# Test: Kinobeads elution with test compound, mouse brain lysate, MS
# Type: binding
# Details: kinase released from kinobeads by specific elution
# Description: This example illustrates competitive elution of proteins bound to kinobeads with non-modified test compounds (see particularly the fourth aspect of the invention). […] The kinobeads were contacted with mouse brain lysate under conditions that allow the binding of the proteins in the lysate to the ligands. The binding conditions were close to physiological by choosing suitable buffer conditions preserving the function of the proteins. After removing non-captured proteins through a gentle washing procedure the bound proteins were contacted with a test compound for protein elution. […] 1. […] Transfer 20 μl the 1:3 slurry into MoBiTech columns (equivalent to 5 μl of beads). 3. Place the column into an Eppendorf tube and centrifuge it for 15 seconds at 800 rpm at 4° C. Close columns with lower lid. 4. Add 10 μl elution buffer containing 1.0 mM of the test compound (concentration ranges of 0.1 to 1.0 mM are suitable). […] Close column with upper lid. 5. Incubate for 30 minutes at 4° C. in an Eppendorf incubator at 700 rpm. 6. Open column (first top, then bottom), put column back into siliconized tube ([…] Microcentrifuge Tubes, cat. no 11270, Sorenson BioScience, Inc.). To harvest the eluate centrifuge 2 minutes at 2.000 rpm in table top centrifuge at room temperature. The typical volume of the eluate is approximately 15 μl. 7. […]
# Sequence of CDKL5 (Q3UTQ8 whole entry): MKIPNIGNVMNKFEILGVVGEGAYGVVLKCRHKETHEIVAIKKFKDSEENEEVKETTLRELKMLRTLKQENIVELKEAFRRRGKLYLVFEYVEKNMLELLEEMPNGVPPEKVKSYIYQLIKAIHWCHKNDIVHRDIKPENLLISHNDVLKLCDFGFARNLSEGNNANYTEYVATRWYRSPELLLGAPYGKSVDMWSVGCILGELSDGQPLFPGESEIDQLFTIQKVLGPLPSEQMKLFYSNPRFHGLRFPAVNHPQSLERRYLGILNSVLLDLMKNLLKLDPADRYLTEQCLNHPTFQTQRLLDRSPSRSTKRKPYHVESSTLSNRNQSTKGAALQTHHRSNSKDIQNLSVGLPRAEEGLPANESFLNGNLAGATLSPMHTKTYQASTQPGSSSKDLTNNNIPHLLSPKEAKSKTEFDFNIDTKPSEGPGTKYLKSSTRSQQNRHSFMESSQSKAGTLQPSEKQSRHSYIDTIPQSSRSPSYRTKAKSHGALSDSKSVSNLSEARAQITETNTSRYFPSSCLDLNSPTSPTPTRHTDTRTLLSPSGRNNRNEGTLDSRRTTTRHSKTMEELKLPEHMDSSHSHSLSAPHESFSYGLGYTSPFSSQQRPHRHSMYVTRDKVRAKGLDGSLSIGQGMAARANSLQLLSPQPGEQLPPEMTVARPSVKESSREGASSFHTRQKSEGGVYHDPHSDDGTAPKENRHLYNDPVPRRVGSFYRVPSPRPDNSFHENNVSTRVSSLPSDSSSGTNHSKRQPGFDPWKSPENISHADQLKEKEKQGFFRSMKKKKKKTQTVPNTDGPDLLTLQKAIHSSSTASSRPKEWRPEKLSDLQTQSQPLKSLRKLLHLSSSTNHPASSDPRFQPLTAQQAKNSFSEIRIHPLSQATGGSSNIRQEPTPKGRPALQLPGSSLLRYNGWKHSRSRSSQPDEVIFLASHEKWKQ
structure (smiles),measurement,value
"CC(C)[C@H](CO)Nc1nc(Nc2ccc(C(=O)O)c(Cl)c2)c2ncn(C(C)C)c2n1 [Purvalanol B, reference compound]","mass spectrometry score, CDKL5",48
same,"number of identified peptides, CDKL5",1
